Key:
PC-3 = assay: cells; details: Homo sapiens, PC-3, 72 h
Description: Cytotoxicity against human PC3 cells after 72 hrs by MTT assay

NIH3T3 = assay: Cytotoxicity against mouse 3T3 cells after 72 hrs by MTT assay; format: cell-based; details: NIH3T3, 72 h

| Compound | IC50 (PC-3) | IC50 (NIH3T3) |
| --- | --- | --- |
| C[C@@]12C[C@@H](c3ccoc3)OC(=O)[C@@H]1C[C@@H]1OC(=O)[C@@]3(O)[C@@H](O[C@@H]4O[C@H](CO)[C@@H](O)[C@H](O)[C@H]4O)CC[C@@H]2[C@@]13C [BORAPETOSIDE A] | > 10 µM | > 10 µM |
| COC(=O)C1=C[C@H](O)C[C@H]2[C@]3(C)C[C@@H](c4ccoc4)OC(=O)[C@H]3C[C@H](O[C@@H]3O[C@H](CO)[C@@H](O)[C@H](O)[C@H]3O)[C@@]12C [BORAPETOSIDE B] | > 10 µM | > 10 µM |
| COC(=O)C1=CCC[C@H]2[C@]3(C)C[C@@H](c4ccoc4)OC(=O)[C@@H]3C[C@@H](O[C@@H]3O[C@H](CO)[C@@H](O)[C@H](O)[C@H]3O)[C@@]12C [BORAPETOSIDE C] | > 10 µM | > 10 µM |
| C[C@@H]1C[C@@H]([C@H](O)CC2CC(=O)NC(=O)C2)C(=O)[C@@H](C)C1 [CYCLOHEXIMIDE] |  | 0.26 µM |

Second part, led by results:

| IC50 (PC-3) | Compound | IC50 (NIH3T3) |
| --- | --- | --- |
| > 10 µM | COC(=O)C1=CCC[C@H]2[C@](C)(C[C@@H](O[C@@H]3O[C@H](CO[C@@H]4O[C@H](CO)[C@@H](O)[C@H](O)[C@H]4O)[C@@H](O)[C@H](O)[C@H]3O)c3ccoc3)[C@H]3C[C@H](OC3=O)[C@@]12C [BORAPETOSIDE D] | > 10 µM |
| 0.912 µM | COc1cccc2c1C(=O)c1c(O)c3c(c(O)c1C2=O)C[C@@](O)(C(=O)CO)C[C@@H]3O[C@H]1C[C@H](N)[C@H](O)[C@H](C)O1 [DOXORUBICIN] |  |
